Test results from ChEMBL document CHEMBL1132200, “Novel adrenoceptor antagonists with a tricyclic pyrrolodipyridazine skeleton” (J Med Chem, 1999).

Experiments:
[1] = biological target: T1, Adrenergic receptor alpha-1 (Rattus norvegicus, UniProt P15823+P23944+P43140); assay: The compound was tested for binding affinity on [3H]- prazosin as specific ligand on alpha-1 adrenergic receptor cells in rat cerebral cortex; type: tissue-based
T1 sequence (P15823 whole entry): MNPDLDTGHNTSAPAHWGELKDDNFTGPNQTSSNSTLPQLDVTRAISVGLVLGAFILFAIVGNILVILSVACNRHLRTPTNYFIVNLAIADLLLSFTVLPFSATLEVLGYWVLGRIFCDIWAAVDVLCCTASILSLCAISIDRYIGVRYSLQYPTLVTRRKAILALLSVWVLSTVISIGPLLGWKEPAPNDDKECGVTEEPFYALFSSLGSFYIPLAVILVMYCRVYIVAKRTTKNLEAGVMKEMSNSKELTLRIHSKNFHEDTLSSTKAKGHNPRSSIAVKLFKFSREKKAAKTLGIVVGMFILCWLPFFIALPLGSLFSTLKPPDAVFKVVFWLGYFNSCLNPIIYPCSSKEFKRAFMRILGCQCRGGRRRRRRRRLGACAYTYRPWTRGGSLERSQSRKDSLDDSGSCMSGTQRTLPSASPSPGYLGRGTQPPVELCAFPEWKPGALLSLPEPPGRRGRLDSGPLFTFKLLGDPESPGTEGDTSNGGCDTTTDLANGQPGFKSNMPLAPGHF
T1 sequence (P23944 whole entry): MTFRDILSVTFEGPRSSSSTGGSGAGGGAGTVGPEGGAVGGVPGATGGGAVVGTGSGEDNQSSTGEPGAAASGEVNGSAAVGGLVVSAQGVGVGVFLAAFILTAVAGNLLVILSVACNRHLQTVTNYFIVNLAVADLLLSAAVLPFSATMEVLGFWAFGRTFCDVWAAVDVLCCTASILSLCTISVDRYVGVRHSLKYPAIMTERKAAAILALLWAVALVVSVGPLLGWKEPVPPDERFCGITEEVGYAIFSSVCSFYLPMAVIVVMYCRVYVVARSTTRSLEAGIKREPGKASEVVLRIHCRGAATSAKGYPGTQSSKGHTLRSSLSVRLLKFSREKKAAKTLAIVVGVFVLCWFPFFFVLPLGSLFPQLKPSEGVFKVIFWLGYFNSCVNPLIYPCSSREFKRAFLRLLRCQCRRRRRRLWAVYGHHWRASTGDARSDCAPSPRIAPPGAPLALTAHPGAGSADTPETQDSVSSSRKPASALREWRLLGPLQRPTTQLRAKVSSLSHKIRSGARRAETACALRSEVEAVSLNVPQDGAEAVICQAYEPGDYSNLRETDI
T1 sequence (P43140 whole entry): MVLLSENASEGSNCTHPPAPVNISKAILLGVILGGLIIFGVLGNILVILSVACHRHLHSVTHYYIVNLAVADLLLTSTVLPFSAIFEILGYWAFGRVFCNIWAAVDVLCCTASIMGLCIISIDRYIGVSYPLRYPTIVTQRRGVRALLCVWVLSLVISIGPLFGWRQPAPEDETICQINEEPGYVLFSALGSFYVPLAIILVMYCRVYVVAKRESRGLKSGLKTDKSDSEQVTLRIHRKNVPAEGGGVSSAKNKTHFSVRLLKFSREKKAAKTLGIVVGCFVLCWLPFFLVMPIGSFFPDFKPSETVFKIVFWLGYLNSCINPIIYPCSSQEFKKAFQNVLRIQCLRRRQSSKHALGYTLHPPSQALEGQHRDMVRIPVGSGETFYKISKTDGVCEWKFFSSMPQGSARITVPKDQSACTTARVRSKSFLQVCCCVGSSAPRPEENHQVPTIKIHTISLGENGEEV

[2] = biological target: T2, 5-hydroxytryptamine receptor 1A (Rattus norvegicus, UniProt P19327); assay: The compound was tested for binding affinity on [3H]8-OH-DPAT as specific ligand on 5-hydroxytryptamine 1A receptor in rat hippocampus; type: tissue-based
T2 sequence (P19327 whole entry): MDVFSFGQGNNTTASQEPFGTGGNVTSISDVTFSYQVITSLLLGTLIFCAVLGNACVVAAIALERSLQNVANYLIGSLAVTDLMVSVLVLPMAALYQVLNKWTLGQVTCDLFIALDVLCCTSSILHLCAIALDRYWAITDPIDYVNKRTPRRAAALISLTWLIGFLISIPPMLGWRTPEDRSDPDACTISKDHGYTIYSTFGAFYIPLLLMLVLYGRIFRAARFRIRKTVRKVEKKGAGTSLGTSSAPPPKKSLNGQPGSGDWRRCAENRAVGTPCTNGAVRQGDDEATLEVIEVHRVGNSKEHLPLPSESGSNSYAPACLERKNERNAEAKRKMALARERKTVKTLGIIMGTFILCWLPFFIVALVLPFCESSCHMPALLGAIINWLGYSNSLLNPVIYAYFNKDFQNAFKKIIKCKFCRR

[3] = biological target: T3, Alpha-1B adrenergic receptor (Homo sapiens, UniProt P35368); assay: The compound was tested for binding affinity on [3H]- prazosin as specific ligand on Human cloned alpha-1B adrenergic receptor in CHO cells; type: cell-based
T3 sequence (P35368 whole entry): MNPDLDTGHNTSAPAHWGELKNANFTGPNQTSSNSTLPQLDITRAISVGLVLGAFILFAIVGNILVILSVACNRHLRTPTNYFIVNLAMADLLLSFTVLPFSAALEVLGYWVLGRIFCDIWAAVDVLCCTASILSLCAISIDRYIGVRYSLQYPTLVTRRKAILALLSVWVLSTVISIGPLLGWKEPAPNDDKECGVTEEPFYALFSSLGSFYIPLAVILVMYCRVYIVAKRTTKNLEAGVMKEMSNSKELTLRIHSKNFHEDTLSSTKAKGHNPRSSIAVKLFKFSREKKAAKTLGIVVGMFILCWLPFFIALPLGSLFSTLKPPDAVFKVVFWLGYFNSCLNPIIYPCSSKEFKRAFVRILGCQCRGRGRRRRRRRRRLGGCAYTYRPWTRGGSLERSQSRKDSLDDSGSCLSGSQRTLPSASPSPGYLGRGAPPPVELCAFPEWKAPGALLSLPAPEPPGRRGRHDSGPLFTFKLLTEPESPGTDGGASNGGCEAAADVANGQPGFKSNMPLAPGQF

[4] = biological target: T4, Alpha-1A adrenergic receptor (Homo sapiens, UniProt P35348); assay: The compound was tested for binding affinity on [3H]- prazosin as specific ligand on Human cloned alpha-1A adrenergic receptor expressed in CHO cells; type: cell-based
T4 sequence (P35348 whole entry): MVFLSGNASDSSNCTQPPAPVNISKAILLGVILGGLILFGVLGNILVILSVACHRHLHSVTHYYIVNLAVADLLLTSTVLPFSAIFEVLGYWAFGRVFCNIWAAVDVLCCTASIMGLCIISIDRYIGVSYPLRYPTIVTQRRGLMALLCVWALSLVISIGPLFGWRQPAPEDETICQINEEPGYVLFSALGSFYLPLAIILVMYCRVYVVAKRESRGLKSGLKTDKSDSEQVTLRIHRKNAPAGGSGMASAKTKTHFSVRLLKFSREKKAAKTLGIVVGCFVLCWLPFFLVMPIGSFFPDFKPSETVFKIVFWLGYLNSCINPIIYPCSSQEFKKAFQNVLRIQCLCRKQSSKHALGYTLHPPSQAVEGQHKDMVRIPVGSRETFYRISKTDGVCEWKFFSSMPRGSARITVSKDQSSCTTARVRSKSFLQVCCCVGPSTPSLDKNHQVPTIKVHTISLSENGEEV

[5] = Ratio of the binding affinities against 5-HT1A and alpha-1-adrenoceptor from rat brain membranes.; type: cell membranes; conditions: Membrane
[6] = biological target: T5, Alpha-1D adrenergic receptor (Homo sapiens, UniProt P25100); assay: The compound was tested for binding affinity on [3H]- prazosin as specific ligand on Human cloned alpha-1D adrenergic receptor in CHO cells; type: cell-based
T5 sequence (P25100 whole entry): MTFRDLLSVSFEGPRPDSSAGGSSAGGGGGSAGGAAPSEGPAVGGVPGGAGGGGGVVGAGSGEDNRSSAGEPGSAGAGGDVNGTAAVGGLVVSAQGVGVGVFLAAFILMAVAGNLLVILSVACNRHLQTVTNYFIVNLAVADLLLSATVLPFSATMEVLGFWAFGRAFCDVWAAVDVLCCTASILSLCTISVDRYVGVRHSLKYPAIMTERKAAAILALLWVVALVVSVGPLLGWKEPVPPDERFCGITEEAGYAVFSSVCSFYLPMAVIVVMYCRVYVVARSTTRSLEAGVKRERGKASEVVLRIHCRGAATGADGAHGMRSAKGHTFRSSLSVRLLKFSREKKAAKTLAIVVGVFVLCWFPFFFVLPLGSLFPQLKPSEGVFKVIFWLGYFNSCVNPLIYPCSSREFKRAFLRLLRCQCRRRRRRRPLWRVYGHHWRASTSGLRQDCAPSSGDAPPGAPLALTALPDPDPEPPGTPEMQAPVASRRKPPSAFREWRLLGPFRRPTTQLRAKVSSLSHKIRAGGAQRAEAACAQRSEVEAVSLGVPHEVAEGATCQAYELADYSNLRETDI

Row | Structure (SMILES) | Ki [1] [µM] | Ki [2] [µM] | Ki [3] [µM] | Ki [4] [µM] | Ratio [5] | Ki [6] [µM]
1 | Cn1nc(Cl)c2cn3nc(NCCN4CCN(c5ccccc5Cl)CC4)ccc3c2c1=O | 0.0546 | 0.0565 | 0.0136 | 0.00593 | 1.03 | 0.0119
2 | COc1ccccc1N1CCN(CCn2nc(-c3ccccc3)c(C(C)=O)c(N)c2=O)CC1 | 0.0246 | 0.123 | 0.0221 | 0.00475 | 5.01 | 0.00093
3 | Cn1nc(Cl)c2cn3nc(NCCN4CCN(c5ccccc5)CC4)ccc3c2c1=O | 0.1292 | 0.0212 | 0.0156 | 0.00193 | 0.16 | 0.00656
4 | COc1ccccc1N1CCN(CCNc2ccc3c4c(=O)n(C)nc(Cl)c4cn3n2)CC1 | 0.0733 | 0.0163 | 0.0152 | 0.0011 | 0.22 | 0.00304
